Measured values published in PubChem BioAssay (NCI).
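Where inhibition never reached the appropriate level, the endpoint shown equals the highest concentration tested. Otherwise, values were interpolated linearly from a five-concentration, 48-hour dose response in 96-well plates. GI50 marks 50% less growth. TGI marks complete inhibition of growth.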

Key:
Assay in all cases: growth of human tumour cells (NCI), 48 h
A549 NSCLC = tested on: A549 NSCLC
ACHN renal = tested on: ACHN renal
SNB-19 CNS = tested on: SNB-19 CNS
SR leukemia = tested on: SR leukemia
XF 498 CNS = tested on: XF 498 CNS
MCF7 breast = tested on: MCF7 breast
NCI/ADR-RES ovarian = tested on: NCI/ADR-RES ovarian
OVCAR-4 ovarian = tested on: OVCAR-4 ovarian
DMS 273 small cell lung = tested on: DMS 273 small cell lung
SNB-78 CNS = tested on: SNB-78 CNS
RXF-631 renal = tested on: RXF-631 renal
BT-549 breast = tested on: BT-549 breast

| Structure (SMILES) | TGI (A549 NSCLC) | TGI (ACHN renal) | TGI (SNB-19 CNS) | TGI (SR leukemia) | TGI (XF 498 CNS) | GI50 (A549 NSCLC) | GI50 (ACHN renal) | GI50 (MCF7 breast) | TGI (MCF7 breast) | GI50 (NCI/ADR-RES ovarian) | TGI (NCI/ADR-RES ovarian) | GI50 (OVCAR-4 ovarian) | TGI (OVCAR-4 ovarian) | GI50 (SNB-19 CNS) | GI50 (SR leukemia) | TGI (DMS 273 small cell lung) | TGI (SNB-78 CNS) | TGI (RXF-631 renal) | TGI (BT-549 breast) | GI50 (BT-549 breast) |
| --- | --- | --- | --- | --- | --- | --- | --- | --- | --- | --- | --- | --- | --- | --- | --- | --- | --- | --- | --- | --- |
| CN1C2C=C(c3ccccc3)CC1CC2 (stereo not given) | > 100 µM | > 100 µM | > 100 µM | > 100 µM | > 100 µM |  |  |  |  |  |  |  |  |  |  |  |  |  |  |  |
| CCOc1ccc(/C=C/[N+](=O)[O-])cc1 | 27.7 µM | 24.3 µM | 22 µM | 6.37 µM |  | 12.6 µM | 12 µM | 3.4 µM | 13.5 µM | 33 µM | > 100 µM | 23.4 µM | > 100 µM | 8.95 µM | 2.56 µM |  |  |  |  |  |
| O=C1Nc2ccccc2Nc2nc3cccccc-3c21 | > 100 µM | > 100 µM | > 100 µM | > 100 µM | > 100 µM |  |  |  |  |  |  |  | > 100 µM |  |  | > 100 µM | > 100 µM |  |  |  |
| CC1(C)CCc2cc3c(-c4ccccc4)cc(=O)oc3cc2O1 |  | > 100 µM | > 100 µM |  | > 100 µM |  |  |  |  |  |  |  |  |  |  | > 100 µM | > 100 µM | > 100 µM |  |  |
| [C-]#[O+].[Cl][Sn]([Cl])[Cl].[Cl][Sn]([Cl])[Cl].[Pt].c1ccncc1 | > 100 µM |  | > 100 µM |  |  |  |  | > 100 µM | > 100 µM | > 100 µM | > 100 µM |  | > 100 µM |  |  | > 100 µM |  |  |  |  |
| c1ccc2c(c1)nc1n2CSC1 |  | > 100 µM | > 100 µM |  | > 100 µM |  |  |  |  |  |  |  |  |  |  | > 100 µM | > 100 µM | > 100 µM |  |  |
| O=C(Nc1ccc(Cl)cc1)/C(Cc1cccc[n+]1[O-])=N\Nc1ccc([N+](=O)[O-])cc1[N+](=O)[O-] | > 100 µM | > 100 µM | > 100 µM |  |  |  |  |  |  |  |  |  | > 100 µM |  |  | > 100 µM | > 100 µM | > 100 µM |  |  |
| CC(C)=CC(=O)OC1C2C(C)C(=O)OC2C(O)C(C)C2C=CC(=O)C21C (stereo not given) | 33.6 µM |  | 17.4 µM |  | 9.77 µM |  |  |  | 11.1 µM |  | 32.5 µM |  | 6.42 µM |  |  | 8.85 µM | 9.88 µM |  |  |  |
| O=C(Nc1nc2ccc([N+](=O)[O-])cc2[n+]([O-])n1)C(F)(F)F | 83.8 µM | 90.8 µM | > 100 µM | > 100 µM |  |  |  |  | 52.4 µM |  | > 100 µM |  | > 100 µM |  |  |  |  |  | > 100 µM |  |
| O=C1CN2C(Cl)(Cl)C2(c2ccccc2)c2cc(Cl)ccc2N1CC(F)(F)F (stereo not given) |  | > 100 µM |  | 69.9 µM |  |  |  |  |  |  |  |  | 43.7 µM |  |  | 72.7 µM |  |  |  |  |
| CCOP(=O)(OCC)C(Cc1ccc(OC)c(OC)c1)N=C(c1ccccc1)c1ccccc1 (stereo not given) | > 100 µM | > 100 µM | > 100 µM | 46.4 µM |  |  |  |  | 55.5 µM |  | > 100 µM |  | > 100 µM |  |  |  |  |  | > 100 µM |  |
| Cc1nc2ccccc2c(=O)n1CC(=O)O | > 100 µM |  | > 100 µM |  | > 100 µM |  |  |  | > 100 µM |  | > 100 µM |  | > 100 µM |  |  | > 100 µM | > 100 µM |  |  |  |
| Cc1cccc2c(N)c3cccc(C(=O)NCCN(C)C)c3nc12 | 3.5 µM | 6.75 µM |  | 0.0347 µM |  |  |  |  |  |  | 4.74 µM |  | 18 µM |  |  |  |  |  | 4.16 µM |  |
| C[C@]12C=CC(=O)C=C1CC[C@@H]1[C@@H]2C(=O)C[C@@]2(C)[C@H]1CC[C@]2(O)C(=O)CO | > 100 µM | > 100 µM | > 100 µM | > 100 µM |  |  |  |  | > 100 µM |  | > 100 µM |  | > 100 µM |  |  |  |  |  | > 100 µM |  |
| CCN(CC)CCCC(Nc1c2ccc(Cl)cc2nc2ccc(OC)cc12)c1ccc(F)cc1 (stereo not given) | 5.99 µM | 3.64 µM |  | 5.88 µM |  | 2.44 µM | 1.97 µM | 1.64 µM | 3.62 µM | 2.38 µM | 5.75 µM | 1.71 µM | 4.71 µM |  | 2.19 µM |  |  |  | 26.4 µM | 12.8 µM |
| O=C(O)c1cc(=O)[nH]c(=S)[nH]1 | > 100 µM | > 100 µM | > 100 µM |  |  |  |  |  | > 100 µM |  | > 100 µM |  | > 100 µM |  |  |  |  |  | > 100 µM |  |
| CC[C@@H](C(=O)[C@@H](C)[C@@H](O)[C@H](C)CCc1ccc(C)c(O)c1C(=O)O)[C@H]1O[C@](CC)([C@H]2CC[C@](O)(CC)[C@H](C)O2)C[C@@H]1C | 11.9 µM | 13.2 µM | 5.95 µM |  | 3.41 µM |  |  |  |  |  |  |  | 19.2 µM |  |  | 8.1 µM | 17.1 µM | 10.7 µM |  |  |
| COc1c2c(cc3c(CCc4ccccc4)cc(=O)oc13)CCC(C)(C)O2 |  | > 100 µM |  | > 100 µM |  |  |  |  |  |  |  |  |  |  |  | > 100 µM |  |  |  |  |
| Cc1ccc(/C(=C/C=C(C#N)C#N)Sc2cc(Cl)ccc2Cl)cc1 | > 100 µM | 10 µM | 22.3 µM |  |  |  |  |  | > 100 µM |  | 7.58 µM |  | 37.7 µM |  |  |  |  |  |  |  |
| CC(C)=CCc1c(C)cc2cc3c(c(O)c2c1O)C(O)=CC(=O)C3(CC=C(C)C)C/C=C(\C)CO (stereo not given) | 77 µM |  | 86.2 µM |  | 53.5 µM |  |  |  | 84.3 µM |  | 102 µM |  | 87 µM |  |  | 109 µM |  |  |  |  |
| CN1CCN(Cc2ccc(NC(=O)c3ccc(C#N)c(C#Cc4cnc(N)c5ncccc45)c3)cc2C(F)(F)F)CC1 |  | 3.15 µM | > 100 µM |  |  |  | 1.69 µM |  |  |  |  |  |  | 3.87 µM |  |  |  |  | 41.9 µM | 12.7 µM |
| CCCCN(CCCC)CCCCNc1c(C)cnc2cc(Cl)ccc12 | > 100 µM | > 100 µM | > 100 µM |  | 28.6 µM |  |  |  |  |  |  |  | > 100 µM |  |  |  | > 100 µM | 33.5 µM |  |  |
| CCOc1ccc2c(ccc(/C=C\c3cc(C)c4cccnc4c3O)[n+]2C)c1 | 26.4 µM | 21.4 µM | 30.7 µM | 5.73 µM |  |  |  |  |  |  | > 100 µM |  | 18.6 µM |  |  |  |  |  | 38.1 µM |  |
| Cc1ccc(S(=O)(=O)Oc2cc(S(=O)(=O)O)cc3cc(S(=O)(=O)O)cc(N)c23)cc1 | > 100 µM | > 100 µM | > 100 µM | > 100 µM |  |  |  |  | > 100 µM |  | > 100 µM |  | > 100 µM |  |  |  |  |  | > 100 µM |  |
| CC1=C[C@]2(CC(C)C3C(CC4(C)C5CCC6C(C)(C)C(=O)CC[C@@]67C[C@@]57CC[C@]34C)O2)OC1=O (stereo not given in full) | > 100 µM | > 100 µM | 83.7 µM | > 100 µM | 30 µM |  |  |  |  |  |  |  | 57.5 µM |  |  | 32.6 µM | 71.9 µM | 30.5 µM |  |  |
| COc1cc2c3c(n(CCN(C)C)c(=O)c2cc1OC)-c1cc2c(cc1C3=O)OCO2 | > 100 µM | > 100 µM | > 100 µM |  |  | 0.799 µM |  | 0.297 µM | > 33.8 µM | 0.315 µM | > 40 µM | > 38.2 µM | > 100 µM | > 20.7 µM |  |  |  |  | > 100 µM | > 47.7 µM |
| CO/N=C1/c2sccc2[C@H](NC(=O)C(F)(F)F)[C@@H]1O | > 100 µM |  |  | > 100 µM |  |  |  |  | > 100 µM |  | > 100 µM |  | > 100 µM |  |  |  |  |  | > 100 µM |  |
